Measured values as given in ChEMBL document CHEMBL4507289, “Data for DCP probe GSM1” (2021).

Experiments:
[1] = target: Tyrosine-protein kinase ABL2 (Homo sapiens) (UniProt P42684); conditions: Compound concentration 1000.0 nM
[2] = target: Aurora kinase B (Homo sapiens) (UniProt Q96GD4); conditions: Compound concentration 1000.0 nM
[3] = target: Cyclin-dependent kinase 4 (Homo sapiens) (UniProt P11802); conditions: Compound concentration 1000.0 nM
[4] = target: Serine/threonine-protein kinase Chk1 (Homo sapiens) (UniProt O14757); conditions: Compound concentration 1000.0 nM
Sequence of Serine/threonine-protein kinase Chk1 (Homo sapiens) (O14757 whole entry): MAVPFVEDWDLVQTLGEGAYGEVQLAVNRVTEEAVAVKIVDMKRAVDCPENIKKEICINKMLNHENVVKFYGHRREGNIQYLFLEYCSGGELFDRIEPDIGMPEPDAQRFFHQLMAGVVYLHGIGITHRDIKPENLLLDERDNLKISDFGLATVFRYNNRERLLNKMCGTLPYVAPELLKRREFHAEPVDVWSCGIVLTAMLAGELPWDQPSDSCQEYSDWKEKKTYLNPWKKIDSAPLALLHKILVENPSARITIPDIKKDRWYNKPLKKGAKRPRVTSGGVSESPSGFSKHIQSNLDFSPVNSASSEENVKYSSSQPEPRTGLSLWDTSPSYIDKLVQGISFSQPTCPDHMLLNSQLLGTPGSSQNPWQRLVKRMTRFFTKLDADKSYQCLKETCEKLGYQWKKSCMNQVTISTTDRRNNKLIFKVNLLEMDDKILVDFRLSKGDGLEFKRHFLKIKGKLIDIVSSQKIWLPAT

[5] = target: Dual specificity protein kinase CLK4 (Homo sapiens) (UniProt Q9HAZ1); conditions: Compound concentration 1000.0 nM
[6] = target: Casein kinase I isoform epsilon (Homo sapiens) (UniProt P49674); conditions: Compound concentration 1000.0 nM
[7] = target: Megakaryocyte-associated tyrosine-protein kinase (Homo sapiens) (UniProt P42679); conditions: Compound concentration 1000.0 nM
[8] = target: Discoidin domain-containing receptor 2 (Homo sapiens) (UniProt Q16832); conditions: Compound concentration 1000.0 nM
Sequence of Discoidin domain-containing receptor 2 (Homo sapiens) (Q16832 whole entry, the tested form may be a part): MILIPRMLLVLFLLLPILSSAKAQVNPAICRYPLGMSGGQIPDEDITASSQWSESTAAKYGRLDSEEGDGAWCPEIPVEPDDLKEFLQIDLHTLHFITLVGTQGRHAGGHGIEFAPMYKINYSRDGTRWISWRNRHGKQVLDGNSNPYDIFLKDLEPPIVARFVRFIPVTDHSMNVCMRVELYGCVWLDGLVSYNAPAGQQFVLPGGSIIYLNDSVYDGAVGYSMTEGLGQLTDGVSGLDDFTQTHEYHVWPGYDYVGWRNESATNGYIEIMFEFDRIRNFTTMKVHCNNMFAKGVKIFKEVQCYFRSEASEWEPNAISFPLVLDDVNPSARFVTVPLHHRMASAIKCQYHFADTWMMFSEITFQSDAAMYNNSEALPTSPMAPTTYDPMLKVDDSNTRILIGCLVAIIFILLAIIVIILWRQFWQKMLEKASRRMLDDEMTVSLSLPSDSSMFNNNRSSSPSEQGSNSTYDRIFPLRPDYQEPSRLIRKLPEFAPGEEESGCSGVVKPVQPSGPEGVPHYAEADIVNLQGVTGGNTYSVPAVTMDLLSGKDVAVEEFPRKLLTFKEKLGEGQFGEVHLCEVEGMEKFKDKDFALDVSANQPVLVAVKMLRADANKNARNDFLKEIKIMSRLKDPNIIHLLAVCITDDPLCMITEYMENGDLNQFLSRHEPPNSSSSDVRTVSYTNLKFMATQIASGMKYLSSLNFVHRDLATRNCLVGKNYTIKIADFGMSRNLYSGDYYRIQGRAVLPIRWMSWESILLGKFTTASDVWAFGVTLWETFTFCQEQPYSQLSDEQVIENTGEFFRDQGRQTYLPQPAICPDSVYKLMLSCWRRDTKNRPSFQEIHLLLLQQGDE

[9] = target: Serine/threonine-protein kinase MRCK gamma (Homo sapiens) (UniProt Q6DT37); conditions: Compound concentration 1000.0 nM
[10] = target: Ephrin type-A receptor 6 (Homo sapiens) (UniProt Q9UF33); conditions: Compound concentration 1000.0 nM
[11] = target: Ephrin type-B receptor 3 (Homo sapiens) (UniProt P54753); conditions: Compound concentration 1000.0 nM
[12] = target: Receptor tyrosine-protein kinase erbB-3 (Homo sapiens) (UniProt P21860); conditions: Compound concentration 1000.0 nM
[13] = tested on: Receptor-type tyrosine-protein kinase FLT3 (Homo sapiens), P36888 [D835Y]; conditions: Compound concentration 1000.0 nM
[14] = target: Vascular endothelial growth factor receptor 3 (Homo sapiens) (UniProt P35916); conditions: Compound concentration 1000.0 nM
[15] = target: Mitogen-activated protein kinase kinase kinase kinase 1 (Homo sapiens) (UniProt Q92918); conditions: Compound concentration 1000.0 nM
[16] = target: Tyrosine-protein kinase JAK3 (Homo sapiens) (UniProt P52333); conditions: Compound concentration 1000.0 nM
[17] = target: Serine/threonine-protein kinase LATS2 (Homo sapiens) (UniProt Q9NRM7); conditions: Compound concentration 1000.0 nM
[18] = target: Mitogen-activated protein kinase kinase kinase kinase 4 (Homo sapiens) (UniProt O95819); conditions: Compound concentration 1000.0 nM
[19] = tested on: Hepatocyte growth factor receptor (Homo sapiens), P08581 [Y1235D]; conditions: Compound concentration 1000.0 nM
[20] = target: Myosin light chain kinase (Homo sapiens) (UniProt Q32MK0); conditions: Compound concentration 1000.0 nM
[21] = target: Serine/threonine-protein kinase 26 (Homo sapiens) (UniProt Q9P289); conditions: Compound concentration 1000.0 nM
Sequence of Serine/threonine-protein kinase 26 (Homo sapiens) (Q9P289 2-416 limits assumed): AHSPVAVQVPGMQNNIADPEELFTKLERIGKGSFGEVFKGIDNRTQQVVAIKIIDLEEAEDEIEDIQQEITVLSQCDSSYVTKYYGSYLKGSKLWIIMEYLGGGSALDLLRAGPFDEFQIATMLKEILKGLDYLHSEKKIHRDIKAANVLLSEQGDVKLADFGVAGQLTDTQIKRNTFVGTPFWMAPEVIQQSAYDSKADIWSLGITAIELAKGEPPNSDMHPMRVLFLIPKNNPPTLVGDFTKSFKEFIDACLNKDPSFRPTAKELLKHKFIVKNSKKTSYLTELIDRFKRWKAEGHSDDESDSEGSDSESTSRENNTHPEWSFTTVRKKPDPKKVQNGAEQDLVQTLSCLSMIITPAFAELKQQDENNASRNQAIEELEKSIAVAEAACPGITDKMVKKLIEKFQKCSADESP

[22] = target: Myosin light chain kinase family member 4 (Homo sapiens) (UniProt Q86YV6); conditions: Compound concentration 1000.0 nM
[23] = target: Serine/threonine-protein kinase 38 (Homo sapiens) (UniProt Q15208); conditions: Compound concentration 1000.0 nM
[24] = target: Serine/threonine-protein kinase Nek11 (Homo sapiens) (UniProt Q8NG66); conditions: Compound concentration 1000.0 nM
[25] = target: Serine/threonine-protein kinase Nek4 (Homo sapiens) (UniProt P51957); conditions: Compound concentration 1000.0 nM
[26] = target: Serine/threonine-protein kinase Nek9 (Homo sapiens) (UniProt Q8TD19); conditions: Compound concentration 1000.0 nM
Sequence of Serine/threonine-protein kinase Nek9 (Homo sapiens) (Q8TD19 whole entry): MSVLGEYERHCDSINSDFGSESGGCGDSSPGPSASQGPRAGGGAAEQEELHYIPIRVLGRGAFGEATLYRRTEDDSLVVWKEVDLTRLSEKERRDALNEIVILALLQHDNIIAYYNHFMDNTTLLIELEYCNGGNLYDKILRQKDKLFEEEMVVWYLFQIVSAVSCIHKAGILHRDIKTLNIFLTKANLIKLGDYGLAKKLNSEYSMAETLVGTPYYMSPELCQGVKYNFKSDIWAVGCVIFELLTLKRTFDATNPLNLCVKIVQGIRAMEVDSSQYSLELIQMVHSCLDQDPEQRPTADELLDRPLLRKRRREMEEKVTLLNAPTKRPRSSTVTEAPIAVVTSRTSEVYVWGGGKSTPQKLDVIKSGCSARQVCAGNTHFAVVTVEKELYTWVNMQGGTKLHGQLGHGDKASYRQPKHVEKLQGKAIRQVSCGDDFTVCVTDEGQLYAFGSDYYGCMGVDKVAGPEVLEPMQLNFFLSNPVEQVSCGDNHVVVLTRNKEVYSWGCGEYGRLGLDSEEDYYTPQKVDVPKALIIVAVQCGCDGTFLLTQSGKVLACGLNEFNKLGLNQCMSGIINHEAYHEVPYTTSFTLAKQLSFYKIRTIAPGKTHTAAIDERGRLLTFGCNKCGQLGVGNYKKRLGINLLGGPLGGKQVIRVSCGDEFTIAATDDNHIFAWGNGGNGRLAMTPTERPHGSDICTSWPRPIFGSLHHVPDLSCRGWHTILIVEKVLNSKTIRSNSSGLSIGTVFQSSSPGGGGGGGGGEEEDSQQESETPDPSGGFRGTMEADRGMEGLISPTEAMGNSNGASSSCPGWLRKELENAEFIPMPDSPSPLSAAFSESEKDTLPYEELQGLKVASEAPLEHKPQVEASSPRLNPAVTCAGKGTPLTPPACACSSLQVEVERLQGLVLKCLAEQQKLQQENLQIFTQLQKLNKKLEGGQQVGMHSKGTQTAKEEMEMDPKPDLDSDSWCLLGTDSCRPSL

[27] = target: Mitogen-activated protein kinase kinase kinase 14 (Homo sapiens) (UniProt Q99558); conditions: Compound concentration 1000.0 nM
[28] = target: Serine/threonine-protein kinase PAK 2 (Homo sapiens) (UniProt Q13177); conditions: Compound concentration 1000.0 nM
[29] = target: Cyclin-dependent kinase 16 (Homo sapiens) (UniProt Q00536); conditions: Compound concentration 1000.0 nM
[30] = target: Cyclin-dependent kinase 14 (Homo sapiens) (UniProt O94921); conditions: Compound concentration 1000.0 nM
Sequence of Cyclin-dependent kinase 14 (Homo sapiens) (O94921 whole entry): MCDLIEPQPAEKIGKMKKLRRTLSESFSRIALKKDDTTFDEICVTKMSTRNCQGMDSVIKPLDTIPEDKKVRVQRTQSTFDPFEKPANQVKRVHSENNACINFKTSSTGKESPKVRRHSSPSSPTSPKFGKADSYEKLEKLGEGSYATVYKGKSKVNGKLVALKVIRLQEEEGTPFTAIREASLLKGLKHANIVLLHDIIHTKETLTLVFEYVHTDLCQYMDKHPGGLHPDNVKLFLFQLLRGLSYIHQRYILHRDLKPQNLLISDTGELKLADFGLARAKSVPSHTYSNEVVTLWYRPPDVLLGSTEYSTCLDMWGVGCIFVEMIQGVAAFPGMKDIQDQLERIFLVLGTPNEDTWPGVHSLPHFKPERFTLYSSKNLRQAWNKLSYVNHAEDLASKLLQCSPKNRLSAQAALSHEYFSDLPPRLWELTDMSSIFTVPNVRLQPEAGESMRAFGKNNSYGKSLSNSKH

[31] = target: Protein kinase C iota type (Homo sapiens) (UniProt P41743); conditions: Compound concentration 1000.0 nM
[32] = target: cAMP-dependent protein kinase catalytic subunit PRKX (Homo sapiens) (UniProt P51817); conditions: Compound concentration 1000.0 nM
[33] = target: Protein-tyrosine kinase 2-beta (Homo sapiens) (UniProt Q14289); conditions: Compound concentration 1000.0 nM
Sequence of Protein-tyrosine kinase 2-beta (Homo sapiens) (Q14289 whole entry, looked up): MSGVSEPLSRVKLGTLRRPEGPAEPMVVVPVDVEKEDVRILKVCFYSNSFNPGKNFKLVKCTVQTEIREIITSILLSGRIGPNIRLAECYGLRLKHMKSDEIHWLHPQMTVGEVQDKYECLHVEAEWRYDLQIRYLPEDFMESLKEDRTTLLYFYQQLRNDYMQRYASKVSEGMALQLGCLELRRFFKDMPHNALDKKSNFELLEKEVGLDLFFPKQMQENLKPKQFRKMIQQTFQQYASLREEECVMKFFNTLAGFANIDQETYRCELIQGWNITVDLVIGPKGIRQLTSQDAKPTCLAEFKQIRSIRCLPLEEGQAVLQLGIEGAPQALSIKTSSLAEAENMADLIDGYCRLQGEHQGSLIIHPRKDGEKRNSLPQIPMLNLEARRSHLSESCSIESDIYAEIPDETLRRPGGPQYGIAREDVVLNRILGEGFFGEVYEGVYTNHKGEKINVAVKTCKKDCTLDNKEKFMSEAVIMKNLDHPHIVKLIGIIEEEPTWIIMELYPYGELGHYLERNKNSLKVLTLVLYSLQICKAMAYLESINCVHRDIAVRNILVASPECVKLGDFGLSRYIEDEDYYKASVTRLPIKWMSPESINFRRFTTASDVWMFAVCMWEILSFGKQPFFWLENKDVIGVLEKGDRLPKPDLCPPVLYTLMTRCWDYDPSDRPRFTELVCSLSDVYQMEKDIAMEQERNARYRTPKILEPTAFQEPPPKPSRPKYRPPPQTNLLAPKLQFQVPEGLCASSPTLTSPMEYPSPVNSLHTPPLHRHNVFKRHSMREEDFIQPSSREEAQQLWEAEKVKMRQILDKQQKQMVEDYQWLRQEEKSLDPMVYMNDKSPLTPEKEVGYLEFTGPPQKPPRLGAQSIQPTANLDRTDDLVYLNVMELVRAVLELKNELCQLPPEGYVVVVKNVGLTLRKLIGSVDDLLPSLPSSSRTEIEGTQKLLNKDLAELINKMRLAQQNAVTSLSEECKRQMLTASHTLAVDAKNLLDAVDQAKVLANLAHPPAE

[34] = target: Serine/threonine-protein kinase RIO1 (Homo sapiens) (UniProt Q9BRS2); conditions: Compound concentration 1000.0 nM
[35] = target: Receptor-interacting serine/threonine-protein kinase 2 (Homo sapiens) (UniProt O43353); conditions: Compound concentration 1000.0 nM
[36] = target: Receptor-interacting serine/threonine-protein kinase 4 (Homo sapiens) (UniProt P57078); conditions: Compound concentration 1000.0 nM
[37] = target: Serine/threonine-protein kinase SIK1 (Homo sapiens) (UniProt P57059); conditions: Compound concentration 1000.0 nM
[38] = target: Serine/threonine-protein kinase SIK2 (Homo sapiens) (UniProt Q9H0K1); conditions: Compound concentration 1000.0 nM
[39] = target: Serine/threonine-protein kinase tousled-like 2 (Homo sapiens) (UniProt Q86UE8); conditions: Compound concentration 1000.0 nM
[40] = target: Serine/threonine-protein kinase ULK3 (Homo sapiens) (UniProt Q6PHR2); conditions: Compound concentration 1000.0 nM
[41] = target: 5-hydroxytryptamine receptor 7 (Homo sapiens) (UniProt P34969); conditions: Compound concentration 10.0 uM
Sequence of 5-hydroxytryptamine receptor 7 (Homo sapiens) (P34969 whole entry): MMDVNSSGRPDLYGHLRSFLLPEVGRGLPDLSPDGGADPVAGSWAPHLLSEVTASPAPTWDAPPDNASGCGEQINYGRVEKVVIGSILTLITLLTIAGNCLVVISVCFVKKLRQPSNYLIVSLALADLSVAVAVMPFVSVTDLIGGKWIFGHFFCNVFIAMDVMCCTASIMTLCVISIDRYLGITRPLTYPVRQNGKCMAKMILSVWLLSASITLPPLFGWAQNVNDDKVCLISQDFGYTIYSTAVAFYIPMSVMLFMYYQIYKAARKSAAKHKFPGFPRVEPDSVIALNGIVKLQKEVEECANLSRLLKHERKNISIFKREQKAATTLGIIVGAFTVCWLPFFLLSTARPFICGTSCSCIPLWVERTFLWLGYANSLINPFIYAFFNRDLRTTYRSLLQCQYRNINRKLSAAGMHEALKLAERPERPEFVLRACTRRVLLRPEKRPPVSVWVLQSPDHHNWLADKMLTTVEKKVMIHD

[42] = target: Delta-type opioid receptor (Homo sapiens) (UniProt P41143); conditions: Compound concentration 10.0 uM
Histamine H2 receptor = Histamine H2 receptor (Homo sapiens, UniProt P25021); conditions: Compound concentration 10.0 uM
[43] = target: GABA-A receptor; anion channel (Rattus norvegicus) (UniProt O09028+P15431+P18506+P18508+P19969+P20236+P23574+P23576+P28471+P28473+P30191+P62813+P63079+P63138+Q91ZM7+Q9ES14); conditions: Compound concentration 10.0 uM

Sequence of Aurora kinase B (Homo sapiens) (Q96GD4 whole entry): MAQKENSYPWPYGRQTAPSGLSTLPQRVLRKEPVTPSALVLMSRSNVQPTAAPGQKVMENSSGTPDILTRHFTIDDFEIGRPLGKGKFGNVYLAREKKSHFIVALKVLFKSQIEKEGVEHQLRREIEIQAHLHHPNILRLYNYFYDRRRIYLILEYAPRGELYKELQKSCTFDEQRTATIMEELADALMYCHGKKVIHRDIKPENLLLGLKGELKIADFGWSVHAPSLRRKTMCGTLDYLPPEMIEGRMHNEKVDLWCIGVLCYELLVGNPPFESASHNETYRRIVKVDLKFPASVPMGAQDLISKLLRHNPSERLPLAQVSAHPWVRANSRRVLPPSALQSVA

COc1cc(-c2cn([C@H]3CCc4c(F)cccc4N(CC(F)(F)F)C3=O)nn2)ccc1-n1cnc(C)c1
residual activity [1]: 100% | residual activity [2]: 100% | residual activity [3]: 100% | residual activity [4]: 100% | residual activity [5]: 100% | residual activity [6]: 80% | residual activity [7]: 100% | residual activity [8]: 100% | residual activity [9]: 100% | residual activity [10]: 100% | residual activity [11]: 100% | residual activity [12]: 98% | residual activity [13]: 86% | residual activity [14]: 100% | residual activity [15]: 100% | residual activity [16]: 100% | residual activity [17]: 100% | residual activity [18]: 0% | residual activity [19]: 100% | residual activity [20]: 92% | residual activity [21]: 90% | residual activity [22]: 100% | residual activity [23]: 89% | residual activity [24]: 100% | residual activity [25]: 100% | residual activity [26]: 100% | residual activity [27]: 86% | residual activity [28]: 91% | residual activity [29]: 82% | residual activity [30]: 100% | residual activity [31]: 100% | residual activity [32]: 100% | residual activity [33]: 100% | residual activity [34]: 96% | residual activity [35]: 100% | residual activity [36]: 56% | residual activity [37]: 100% | residual activity [38]: 100% | residual activity [39]: 100% | residual activity [40]: 63% | inhibition [41]: 26.8% | inhibition [42]: 18.2% | inhibition (Histamine H2 receptor): 51.8% | inhibition [43]: 28.6%

COc1cc(-c2cn([C@H]3CCc4ccccc4N(CC(F)(F)F)C3=O)nn2)ccc1-n1ccc(C)n1
residual activity [1]: 100% | residual activity [2]: 89% | residual activity [3]: 86% | residual activity [4]: 100% | residual activity [5]: 80% | residual activity [6]: 100% | residual activity [7]: 80% | residual activity [8]: 99% | residual activity [9]: 100% | residual activity [10]: 98% | residual activity [11]: 100% | residual activity [12]: 77% | residual activity [13]: 92% | residual activity [14]: 100% | residual activity [15]: 100% | residual activity [16]: 88% | residual activity [17]: 69% | residual activity [18]: 100% | residual activity [19]: 93% | residual activity [20]: 100% | residual activity [21]: 83% | residual activity [22]: 100% | residual activity [23]: 100% | residual activity [24]: 99% | residual activity [25]: 100% | residual activity [26]: 100% | residual activity [27]: 69% | residual activity [28]: 100% | residual activity [29]: 81% | residual activity [30]: 100% | residual activity [31]: 100% | residual activity [32]: 95% | residual activity [33]: 100% | residual activity [34]: 100% | residual activity [35]: 93% | residual activity [36]: 52% | residual activity [37]: 100% | residual activity [38]: 100% | residual activity [39]: 97% | residual activity [40]: 61% | inhibition [41]: 5.84% | inhibition [42]: 16.7% | inhibition (Histamine H2 receptor): 4.13% | inhibition [43]: 0.92%
